Reference: patent publication US10501451B2, “Selective NR2B antagonists” (BRISTOL-MYERS SQUIBB COMPANY, priority 2015, dated 2019)
Read-outs that look alike come from different tables or passages of the source.

Tests used:
hERG channels = hERG channels (Homo sapiens (Human), UniProt Q12809); assay: hERG electrophysiology assay (patch clamp); type: cell-based; settings: HEK 293 cells stably expressing hERG channels, tail current
Protocol: hERG Electrophysiology Assay. The experimental compounds were assessed for hERG activity on HEK 293 cells stably expressing hERG channels using patch clamp technique. Coverslips plated with hERG expressing cells were placed in the experimental chamber and were perfused with a solution composed of (in mM): 140 NaCl, 4 KCl, 1.8 CaCl2, 1 MgCl2, 10 Glucose, 10 HEPES (pH 7.4, NaOH) at room temperature. Borosilicate patch pipettes had tip resistances of 2-4 Mohms when filled with an internal solution containing: 130 KCl, 1 MgCl2, 1 CaCl2, 10 EGTA, 10 HEPES, 5 ATP-K2 (pH 7.2, KOH). The cells were clamped at −80 mV in whole cell configuration using an Axopatch 200B (Axon instruments, Union City, Calif.) patch clamp amplifier controlled by pClamp (Axon instruments) software. […] First, tail currents were recorded in presence of extracellular solution alone (control) and subsequently, in extracellular solution containing increasing compound concentrations. […] The percentage inhibition at each concentration was calculated as reduction in peak tail current with respect to the peak tail current recorded in the presence of control solution. […]

[1] = Drug levels in blood plasma and homogenized brain tissue by mass spectroscopy; type: in vivo; settings: iv, mouse; for concentration at 15 min: male, 3 mg/Kg i.v., occupancy study
Protocol: Ex Vivo Occupancy Assay. […] 7-9 weeks old male CD-1 mice were dosed intravenously in a vehicle consisting of 10% dimethylacetamide, 40% PEG-400, 30% hydroxypropyl betacyclodextrin, and 30% water with experimental compounds and the forebrains were harvested 15 minutes post-dosing by decapitation. The brain samples were immediately snap-frozen and stored at −80° C. On the following day, the dosed brain samples were thawed on ice for 15-20 minutes followed by homogenization using Polytron for 10 seconds in cold homogenization buffer composed of 50 mM KH2PO4 (pH adjusted to 7.4 with KOH), 1 mM EDTA, 0.005% Triton X 100 and protease inhibitor cocktail (Sigma Aldrich). The crude homogenates were further homogenized using a Dounce homogenizer and the homogenized membrane aliquots from all animals were flash-frozen and stored at −80° C. until further use. The whole homogenization process was performed on ice. For determining occupancy, the membrane homogenates were first thawed on ice and then needle-homogenized using a 25 gauge needle. The homogenized membrane (6.4 mg/ml) was added to a 96-well plate followed by addition of ^3H Ro 25-6981 (6 nM). The reaction mixture was incubated for 5 minutes on a shaker at 4° C. and then harvested onto GF/B filter plates (treated with 0.5% PEI for 1 hr at room temperature). The filter plates were dried at 50° C. for 20 mins, incubated with microscint 20 for 10 minutes and read on TopCount (Perkin Elmer). Each dose or compound group consisted of 4-5 animals. The control group of animals was dosed with vehicle alone. Membrane from each animal was added in triplicates to the assay plate. Non-specific binding was determined using 10 μM Ro 25-6981 added to the wells containing membrane homogenates from vehicle-dosed animals. […]
Drug levels were determined by mass spectroscopy in the usual manner. […]
Mouse Forced Swim Test (mFST). […] The duration of immobility was evaluated during the total 6 min of the test and expressed as duration (sec) of immobility. […]

Chain of hERG channels (Q12809 whole entry, the tested form may be a part): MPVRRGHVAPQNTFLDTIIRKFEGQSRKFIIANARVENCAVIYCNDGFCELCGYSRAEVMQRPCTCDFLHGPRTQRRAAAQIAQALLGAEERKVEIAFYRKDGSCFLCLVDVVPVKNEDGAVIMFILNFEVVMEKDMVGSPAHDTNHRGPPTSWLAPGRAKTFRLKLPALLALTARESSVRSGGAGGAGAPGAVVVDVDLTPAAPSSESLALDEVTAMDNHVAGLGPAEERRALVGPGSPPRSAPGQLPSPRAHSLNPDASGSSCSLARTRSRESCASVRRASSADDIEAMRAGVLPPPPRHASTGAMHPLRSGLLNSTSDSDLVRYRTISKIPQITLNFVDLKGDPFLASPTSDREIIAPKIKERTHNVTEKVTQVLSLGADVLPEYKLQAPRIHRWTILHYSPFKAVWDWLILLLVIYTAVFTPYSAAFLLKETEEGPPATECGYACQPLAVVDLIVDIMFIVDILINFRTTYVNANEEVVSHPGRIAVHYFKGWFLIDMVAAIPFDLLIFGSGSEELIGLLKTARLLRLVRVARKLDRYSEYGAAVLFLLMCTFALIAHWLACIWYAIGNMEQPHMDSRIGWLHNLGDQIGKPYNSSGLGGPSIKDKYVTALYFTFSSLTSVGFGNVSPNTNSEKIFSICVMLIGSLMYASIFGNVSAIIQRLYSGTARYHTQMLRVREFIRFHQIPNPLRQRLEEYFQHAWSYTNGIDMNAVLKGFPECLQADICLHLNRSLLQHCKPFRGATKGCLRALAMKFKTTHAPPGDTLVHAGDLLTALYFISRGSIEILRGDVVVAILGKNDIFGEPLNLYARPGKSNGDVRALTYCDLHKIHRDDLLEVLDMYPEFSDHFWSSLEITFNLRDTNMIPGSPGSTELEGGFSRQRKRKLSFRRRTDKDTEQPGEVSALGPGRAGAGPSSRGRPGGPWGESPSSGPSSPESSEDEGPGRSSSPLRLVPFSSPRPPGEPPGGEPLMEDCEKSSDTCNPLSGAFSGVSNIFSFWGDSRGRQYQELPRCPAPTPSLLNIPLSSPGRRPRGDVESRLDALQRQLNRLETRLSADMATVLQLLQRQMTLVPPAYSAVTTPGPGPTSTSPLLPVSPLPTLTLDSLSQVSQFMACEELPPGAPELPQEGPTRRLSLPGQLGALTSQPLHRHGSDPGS

With `Cc1ccc(CN2OCC(N3CCN(c4ccc(O)cn4)CC3)C2=O)cc1` (single isomer, unassigned) [Example 10, P-1, 4-(4-(5-hydroxypyridin-2-yl)piperazin-1-yl)-2-(4-methylbenzyl)isoxazolidin-3-one] the IC50 (hERG channels) was 30 µM, the concentration at 15 min ([1]; CD-1, brain, read-out: drug levels in the homogenized brain tissue) was 863 nM and the concentration at 15 min ([1]; CD-1, plasma, read-out: Drug levels in the blood plasma) was 572 nM. The concentration at 21 min ([1]; plasma, 1 mg/Kg i.v., at end of forced swim test) was 207 nM.
